Data on 3 compounds can be found in patent publication EP4635958A1, “PYRIMIDINE-CONTAINING POLYCYCLIC DERIVATIVE INHIBITOR, AND PREPARATION METHOD THEREFOR AND USE THEREOF” (Shanghai Hansoh Biomedical Co., Ltd., priority 2022, dated 2024).

Read-outs that look alike come from different tables or passages of the source.

One data set relates to AsPC-1. The data set can be described thus: Inhibition of proliferation of KRAS G12D mutant tumor cell line AsPC-1 (CellTiter-Glo). Type of data set: cell-based. As to the method: 1. Experimental objective: The inhibition activity of the example compounds on the proliferation of 5 KRAS G12D mutant cell lines SNU-1, HPAF-II, Panc0403, AsPC-1 and GP2D was determined. 2. Experimental instruments: • 2.1 Instruments: Microplate reader (BioTek Synergy H1); Pipette (Eppendorf & Rainin). • 2.2 Reagents: HPAF-II, PANC0403, AsPC-1 and GP2D were purchased from COBIOER BIOSCIENCES CO., LTD; SNU-1 was purchased from the cell bank of Chinese Academy of Sciences, Cell Titer-Glo was purchased from Promega, with a catalog number of G7573; RPMI 1640 was purchased from Gibco, with a catalog number of 22400089; DMEM was purchased from Gibco, with a catalog number of 11995065; FBS was purchased from Gibco, with a catalog number of 10091148; PBS was purchased from Gibco, with a catalog number of 10010023; trypsin was purchased from Gibco, with a catalog number of 25200056; cell culture plates were purchased from Corning Company, with a catalog number of 3610. 3. Experimental method: When SNU-1, HPAF-II, Panc0403, AsPC-1 or GP2D cells were cultured to the appropriate confluence, and the SNU-1, HPAF-II, Panc0403, AsPC-1 or GP2D cells were collected. The cells were adjusted to the appropriate cell density using complete culture medium, the cell suspension was plated onto a 96-well plate at 90 µL per well, and the plate was placed in the incubator at 37°C and 5% CO2 for adherent culture overnight. Solutions of the compound with different concentrations were formulated using DMSO and culture medium. A vehicle control was set up. The solutions of the compound were added to the 96-well plate at 10 µL per well, and the plate was placed in the incubator at 37°C and 5% CO2 for further culture for about 72 h. Then, CellTiter-Glo solution was added, and the obtained mixture was shaken and mixed evenly, incubated in the dark for 10 min, and read with a BioTek Synergy H1 microplate reader. 4. Experimental data processing method: The luminescence signal value was used to calculate the inhibition rate. Graphpad Prism software was used to fit the concentration and inhibition rate to a nonlinear regression curve, so as to obtain the IC50 value. 5. Experimental results: Table 2: Determination of the inhibition activity of the compounds on the proliferation of KRAS G12D mutant tumor cell line GP2D
In general terms: In ATP-based viability assays light output follows the ATP content of the culture.

In the next data set the test system is GP2D. The data set can be described thus: Inhibition of proliferation of KRAS G12D mutant tumor cell line GP2D (CellTiter-Glo). The following applies: read-out: GP2D IC50.
A short description of data set [1]: Pharmacokinetic determination in mice (IV and PO, plasma, LCMS/MS). Type of data set: in vivo, Balb/c mice. The text has this:
• 1. Study objective: Balb/c mice were used as test animals to study the pharmacokinetic behavior of the compounds in mice (plasma) after oral administration. • 2. Test scheme • 2.1 Test drugs: The example compounds of the present invention, made in house; • 2.2 Test animals: Balb/c mice, male, purchased from Shanghai Jiesijie Experimental Animal Co., Ltd., animal production license number (SCXK (Shanghai) 2013-0006 N0.311620400001794). • 2.3 Drug formulation: Formulation of a drug for oral administration: 10% Captisol in 50 mM citrate buffer pH 5.0.
(§1) Formulation of 50 mM citric acid: 4.8 g of citric acid was weighed into a 1000 ml glass bottle, ultrapure water was added to 300 ml, and the mixture was magnetically stirred until completely dissolved, additional ultrapure water was then added to 500 ml to formulate 50 mM citric acid.
(§2) Formulation of a solution containing 50 mM citric acid (10% Captisol, PH = 5): 50 g of Captisol powder was weighed and added to a 1000 ml glass bottle, 300 ml of 50 mM citric acid was added, and the mixture was magnetically stirred until completely dissolved, then additional citric acid was added to 500 ml, and the PH was adjusted to 5 using 10 M NaOH.
The example compounds were weighed and added to a 4 mL glass bottle separately, 2.4 mL of the solution was added and the mixture was subjected to ultrasound treatment for 10 min to obtain a colorless clear solution with a concentration of 3 mg/mL.
(§3) Formulation of a drug for intravenous administration: 5%DMSO+10%Solutol HS15+85%PBS.
(§4) The example compounds were weighed, and 5% DMSO was added according to the total administration volume; the mixture was vortexed and sonicated for 2 min to ensure complete dissolution; then, 10% Solutol HS15 was added, and the mixture was vortexed and sonicated for 2 min to achieve complete dissolution; finally, 85% PBS was added, and the mixture was vortexed and sonicated for 5 min; the obtained mixture was filtered through a 0.22 um membrane to obtain a colorless, transparent, and clear solution with a concentration of 0.2 mg/mL.
3 Balb/c mice, male; After overnight fasting, the animals were administered orally (PO) at a dose of 30 mg/kg with an administration volume of 10 mL/kg.
3 Balb/C mice, male; After overnight fasting, the animals were administered intravenously (IV) at a dose of 1 mg/kg with an administration volume of 5 mL/kg.
0.04 mL of blood was collected from the orbit before administration and at 0.25 h, 0.5 h, 1 h, 2 h, 4 h, 6 h, 8 h, and 24 h after administration and placed in an EDTA-2K test tube, and the test tube was centrifuged at 6000 rpm for 6 min at 4°C to separate the plasma, which was stored at -20°C; the animals were fed 4 h after administration.
The final determination results obtained by applying the LCMS/MS method are shown in the table below: Table 6: Pharmacokinetic parameters of the compounds administered intravenously in mice

Data set [2] can be described thus: Pharmacokinetic determination in rats (IV and PO, plasma, LCMS/MS). Type of data set: in vivo, SD rats. The following applies: male SD rats. As to the method: SD rats were used as test animals to study the pharmacokinetic behavior of the example compounds in rats (plasma) after oral administration.
(§5) The example compounds of the present invention, made in house.
3 SD rats per group, male. Shanghai Jiesijie Experimental Animal Co., Ltd., animal production license number (SCXK (Shanghai) 2013-0006 N0.311620400001794).
Formulation of a drug for oral administration: 10% Captisol in 50 mM citrate buffer pH 5.0.
as §1, §2
The example compounds were weighed and dissolved in the solution and the mixture was shaken well and subjected to ultrasound treatment for 15 min to obtain a colorless clear solution with a concentration of 3 mg/mL.
as §3, §4
3 SD rats per group, male; After overnight fasting, the animals were administered orally (PO) at a dose of 30 mg/kg with an administration volume of 10 mL/kg.
3 SD rats per group, male; After overnight fasting, the animals were administered intravenously (IV) at a dose of 1 mg/kg with an administration volume of 5 mL/kg.
0.2 mL of blood was collected from the jugular vein before administration and at 0.25 h, 0.5 h, 1.0 h, 2.0 h, 4.0 h, 6.0 h, 8.0 h, and 24.0 h after administration and placed in an EDTA-2K test tube, and the test tube was centrifuged at 6000 rpm for 6 min at 4°C to separate the plasma, which was stored at -20°C. the animals were fed 4 h after administration.
The final determination results obtained by applying the LCMS/MS method are shown in the table below: Table 8: Pharmacokinetic parameters of the compounds administered intravenously in rats

The subject of data set [3] is human colorectal cancer cell line (GP2D). The data set can be described thus: Anti-tumor efficacy in mouse transplanted tumor model of human colorectal cancer cell line (GP2D). To be noted: 100mpk, PO*BID. Type of data set: in vivo, mice (BALB/c nude).
Source text: 8-10 week old female conventional immunodeficient mice (BALB/c nude) with a body weight of 18 g-22 g were used as experimental animals, and a transplanted tumor model of human colorectal cancer cell line (GP2D) was used to conduct in vivo efficacy experiments to test the anti-tumor results of the example compounds after gavage administration.
as §5
A certain amount of the example compound was weighed, and an appropriate amount of 10% vehicle (Solutol HS15) was added. The mixture was stirred on a magnetic stirrer for 0.5 h to formulate a homogeneous suspension at the desired concentration.
The human colorectal cancer cell line (GP2D) was derived from COBIOER BIOSCIENCES CO., LTD, cultured on DMEM medium (Gibco, 11995-065) supplemented with 10% fetal calf serum (Gibco, 10091-148) and 1% penicillin/streptomycin (Gibco, 15140-122) and observed under a microscope (Thermo Fisher, 311). The cells were routinely passaged when the cells reached 80%-90% confluence in the culture flask. The passaged cells were cultured in a 37°C, 5% CO2 incubator (Thermo Fisher, 311).
Under aseptic conditions, human colorectal cancer cells (GP2D) in the logarithmic growth phase were harvested using 0.25% trypsin-EDTA (Gibco, 25200-056), washed and resuspended with phosphate buffer. The cell suspension was mixed with Matrigel (Corning, 356234) at a 1 : 1 ratio (v/v) and implanted subcutaneously into the right anterior dorsal region of immunodeficient mice (BALB/c nude). Each mouse was inoculated with 5*10^6 cells in a volume of 100 microliters (µL). After inoculation, when the tumor volume reached 100-200 mm^3, the mice would be evenly randomized into 5 groups based on the tumor size, with 5 mice per group, for in vivo efficacy experiments. The positive control group was the compound MRTX-1133, and the negative control group was the vehicle group.
Mode of administration: The positive control group was intraperitoneally injected, and the example compounds were administered orally.
Twice a week, the long and short diameters of the tumor were measured using a vernier caliper, and the tumor volume (mm^3) was calculated using the formula: V = 0.5*D*d*d, where D and d are the long and short diameters of the tumor, respectively. The anti-tumor efficacy was determined by dividing the average increase in tumor volume of compound-treated animals by the average increase in tumor volume of untreated animals. The calculation formula for tumor inhibition rate was: When there is no tumor regression, TGI(%) = 100-[(Vt-V0) administration group/(Vt-V0) vehicle control group]*100%. When tumor regression occurs, TGI(%) = [1-(V1-V0) administration group/V0 vehicle control group]* 100%. All animals were euthanized after the experiment.

[4] abbreviates: proliferation, about 72 h, CellTiter-Glo.
Where [5] appears, read: PO, 30 mg/kg, male Balb/c mice, overnight fasting, plasma.
[6] abbreviates: IV, 1 mg/kg, overnight fasting, plasma.
Setting [7] is: PO, 30 mg/kg, overnight fasting, plasma.
Setting [8] is: Balb/c mice, intravenously (IV), 1 mg/kg, plasma.

For orientation: IC50 means the concentration that inhibits the measured activity by half. What is called Cmax is the highest concentration seen after dosing. The term Tmax denotes the time at which the peak concentration occurs.

Regarding “4-((5S,5aS,6R,9S)-12-((1-((((R)-4-(difluoromethylene)-2-methylpiperidin-1-yl)methyl)cyclopropyl)methoxy)-1-fluoro-5-methyl-5a,6,7,8,9,10-hexahydro-5H-4-oxa-3,10a,11,13,14-pentaaza-6,9-methylnaphtho[1,8-ab]hept-2-yl)-5-ethynyl-6-fluoronaphthalen-2-ol [Example 89]”, in the data set with AsPC-1 (about 72 h), the 50% inhibitory concentration (IC50) is 8.9 nM. Further, the 50% inhibitory concentration (IC50) in the data set on GP2D (setting [4]) is 0.9 nM. In data set [1] (setting [5]), the “AUC0-∞” value came to 1.513 µg·h/mL, the Cmax came to 0.259 µg/mL, the T1/2 was 7.7 h and the Tmax turned out to be 1.0 h.
On to “4-((5S,5aS,6R,9S)-12-((1-((((R)-4-(difluoromethylene)-2-methylpiperidin-1-yl)methyl)cyclopropyl)methoxy)-1-fluoro-5-methyl-5a,6,7,8,9,10-hexahydro-5H-4-oxa-3,10a,11,13,14-pentaaza-6,9-methylnaphtho[1,8-ab]hept-2-yl)-5-ethynyl-6-fluoronaphthalen-2-ol [Example 91]”, for which the IC50 in the data set with AsPC-1 (about 72 h) stood at 5.8 nM. In addition, in data set [2] (setting [6]), the “AUCo-∞” value was 0.66 µg·h/mL, the C0 worked out at 0.995 µg/mL, the CL was 1.52 L/h/kg and the T1/2 is 11.9 h. The same compound had a F in data set [2] (PO 30 mg/kg vs IV 1 mg/kg) of 9.7%. Moreover, in data set [2] (setting [7]), the “AUCo-∞” value was determined as 1.925 µg·h/mL, the Cmax came out at 0.251 µg/mL, the T1/2 came to 4.8 h and the time of peak concentration (Tmax) is 6.0 h. In addition, in the data set on GP2D (setting [4]), the IC50 came out at 0.28 nM. Besides, in data set [1] (setting [8]), the “AUCo-∞” value was 0.366 µg·h/mL, the C0 worked out at 0.662 µg/mL, the CL was found to be 2.74 L/h/kg and the T1/2 was determined as 9.3 h. In data set [1] (PO 30 mg/kg vs IV 1 mg/kg, male Balb/c mice), the F turned out to be 16.6%. Besides, in data set [1] (setting [5]), the “AUC0-∞” value worked out at 1.818 µg·h/mL, the Cmax came to 0.295 µg/mL, the T1/2 stood at 5.7 h and the Tmax worked out at 2.0 h.
Take `C#Cc1c(F)ccc2cc(O)cc(-c3nc4c5c(nc(OCC6(CN7CCC(=CF)CC7C)CC6)nc5c3F)N3CC5CCC(N5)C3C(C)O4)c12` (centres unmarked) [Example 285]: in the data set on AsPC-1 (Homo sapiens, ASPC1, about 72 h), the half-maximal inhibitory concentration (IC50) is 4.8 nM. The “Tumor volume (mm^3, Mean ± SD) Day 0” value in data set [3] (Day 0) is 167 mm^3. In data set [3] (Day 14), the “TGI(%) Day 14” value is on record as 148.04%; the “Tumor volume (mm^3, Mean ± SD) Day 14” value was 87 mm^3; the “ΔT/ΔC(%) Day 14” value stood at 10.99%. Also, in data set [2] (rat, in vivo, PO, 30 mg/kg, overnight fasting, plasma, read-out: AUCo-∞), the AUC(0-inf) stood at 0.598 µg·h/mL. Further, the peak concentration (Cmax) in data set [2] (rat, in vivo, PO, 30 mg/kg, overnight fasting, plasma, read-out: Cmax) came to 0.073 µg/mL. Besides, the Tmax in data set [2] (rat, in vivo, PO, 30 mg/kg, overnight fasting, plasma, read-out: Tmax) was 2 h. Besides, the IC50 in the data set on GP2D (Homo sapiens, GP2d, 72 h) turned out to be 0.16 nM.
